Calls of active or inactive are those of the source.
Tests used:
[1] = target: Long-chain-fatty-acid--AMP ligase FadD28 (Mycobacterium tuberculosis, UniProt P9WQ59); test: Fluorescence polarization aasay to screen for inhibitors that compete for the binding of FadD28 to a bisubstrate Measured in Biochemical System Using Plate Reader - 2147-01_Inhibitor_Dose_CherryPick_Activity.; format: functional, Mycobacterium tuberculosis H37Rv
[2] = Luminescent dose response cell-based high throughput screening assay for inhibitors of the Janus kinase 2 mutant JAK2V617F. [Related pubchem assays: 1446 (Primary screen.), 1521 (Confirmation assay.), 1486 (Counter screen.)]; format: functional
[3] = target: T1, Heat shock factor protein 1 (Mus musculus, UniProt P38532); test: enhancement of HSF1-driven luciferase signal – cell-based, NIH3T3, luminescence, dose retest, confirmation (AID 435004); format: functional;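 also: stress induced by proteasome inhibitor MG132 added 30 min after compound; luciferase reporter driven by HSF1 response element in NIH3T3 cells; actives raise luminescence as potentiators of the MG132 stress response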
T1 sequence (P38532 whole entry): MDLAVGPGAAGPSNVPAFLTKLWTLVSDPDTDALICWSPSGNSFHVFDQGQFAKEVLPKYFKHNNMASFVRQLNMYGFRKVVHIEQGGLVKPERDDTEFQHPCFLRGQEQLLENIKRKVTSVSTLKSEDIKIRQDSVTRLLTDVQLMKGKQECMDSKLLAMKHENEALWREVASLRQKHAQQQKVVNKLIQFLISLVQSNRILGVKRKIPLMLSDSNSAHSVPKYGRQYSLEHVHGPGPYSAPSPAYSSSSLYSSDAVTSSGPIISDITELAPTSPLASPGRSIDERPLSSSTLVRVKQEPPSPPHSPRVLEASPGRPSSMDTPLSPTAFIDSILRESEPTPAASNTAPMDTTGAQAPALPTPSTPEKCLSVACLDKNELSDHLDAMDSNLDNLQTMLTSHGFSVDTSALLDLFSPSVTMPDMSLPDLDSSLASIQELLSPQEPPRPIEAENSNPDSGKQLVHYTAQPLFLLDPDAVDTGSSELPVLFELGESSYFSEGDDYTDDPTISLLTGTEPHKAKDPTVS

fMet-Leu-Phe receptor = target: T2, fMet-Leu-Phe receptor (Homo sapiens, UniProt P21462); test: formyl peptide receptor binders – dose response (AID 519); format: functional
T2 sequence (P21462 whole entry): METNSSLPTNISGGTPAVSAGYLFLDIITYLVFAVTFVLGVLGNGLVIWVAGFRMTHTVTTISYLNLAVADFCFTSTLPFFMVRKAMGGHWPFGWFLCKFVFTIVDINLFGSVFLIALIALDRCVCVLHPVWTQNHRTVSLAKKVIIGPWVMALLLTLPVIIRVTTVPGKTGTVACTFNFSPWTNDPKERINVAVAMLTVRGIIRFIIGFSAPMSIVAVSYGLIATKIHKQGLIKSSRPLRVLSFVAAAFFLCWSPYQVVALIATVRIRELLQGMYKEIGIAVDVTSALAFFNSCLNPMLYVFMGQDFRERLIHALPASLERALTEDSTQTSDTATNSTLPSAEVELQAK

[4] = target: Photoreceptor-specific nuclear receptor (Homo sapiens, UniProt Q9Y5X4); format: functional, cell-based;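 also: CHO-S cells with Gal4-NCOR and VP16-NR2E3 two-hybrid luciferase reporter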
[5] = viability loss in HeLa cells – cytotoxicity control for MgcRacGAP inhibitor project, dose response (AID 624300); format: functional
[6] = target: T3, Rac GTPase-activating protein 1 (Homo sapiens, UniProt Q9H0H5); test: blockers of MgcRacGAP-driven Rac1 GTP hydrolysis – biochemical, ADP Hunter fluorescence, primary and confirmatory, confirmation (AID 624330); format: functional
T3 sequence (Q9H0H5 whole entry): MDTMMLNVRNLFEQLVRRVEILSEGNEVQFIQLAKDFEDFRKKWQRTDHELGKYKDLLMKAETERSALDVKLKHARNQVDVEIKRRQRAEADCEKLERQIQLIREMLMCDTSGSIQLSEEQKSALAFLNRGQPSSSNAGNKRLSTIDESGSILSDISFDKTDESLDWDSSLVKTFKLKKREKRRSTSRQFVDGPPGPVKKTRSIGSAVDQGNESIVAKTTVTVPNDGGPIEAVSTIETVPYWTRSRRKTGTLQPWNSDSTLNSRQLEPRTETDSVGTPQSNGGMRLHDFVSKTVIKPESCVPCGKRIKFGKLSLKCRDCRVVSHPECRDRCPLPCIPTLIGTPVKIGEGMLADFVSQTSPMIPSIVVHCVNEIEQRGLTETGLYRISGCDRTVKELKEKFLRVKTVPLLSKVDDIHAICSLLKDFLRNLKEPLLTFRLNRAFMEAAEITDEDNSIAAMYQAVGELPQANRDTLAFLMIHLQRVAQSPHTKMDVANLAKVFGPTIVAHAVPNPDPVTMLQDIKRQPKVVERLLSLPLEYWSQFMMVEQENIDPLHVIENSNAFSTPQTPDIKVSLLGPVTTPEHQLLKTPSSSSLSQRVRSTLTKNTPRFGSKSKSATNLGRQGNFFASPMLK

Paired box protein Pax-8 = Paired box protein Pax-8 (Homo sapiens, UniProt Q06710); test: PAX8 transcriptional activity inhibition in RMG-I – RMG-I cells, luciferase, cherry-pick, dose response (AID 687027); format: functional, cell-based;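 also: luciferase reporter driven by Pax8 target thyroperoxidase promoter measured by SteadyGlo luminescence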
[7] = OVCAR-3 cell viability loss – plate reader, dry powder samples, PAX8 inhibitor project, dose response (AID 743044); format: functional, cell-based
[8] = OVCAR8 cell viability loss – plate reader, dry powder samples, PAX8 project, dose response (AID 743197); format: functional, cell-based; conditions: OVCAR-8
[9] = target: Oxysterols receptor LXR-beta (Homo sapiens, UniProt P55055); format: functional, cell-based;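 also: Cell-based luminescence dose-response assay of agonist activity at LXR, run as a confirmatory counterscreen to a daf-12 agonist screen; HEK293 cells with Gal4-LXR fusion and GAL4-driven luciferase reporter; agonist potency from rising luciferase signal of a Gal4-LXR reporter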
[10] = general mammalian cell viability loss – inhibitor set, cherry-pick, set 2, cytotoxicity control for miR-122 modulator project, dose response (AID 720697); format: functional, cell-based
[11] = HGIII-sPLA2 enzyme inhibition potency – biochemical, QFRET, IC50, dose response (AID 743457);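 also: green fluorescence rise as the enzyme cleaves BODIPY PC-A2 in liposomes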
[12] = target: Disintegrin and metalloproteinase domain-containing protein 17 (Homo sapiens, UniProt P78536); test: exosite inhibitors of ADAM17, dose response, biochemical (AID 743260)
[13] = inhibition of ADAM10 peptide cleavage – biochemical, FRET peptide substrate, recombinant human ADAM10, selectivity assay for ADAM17 exosite inhibitor project, dose response (AID 743259);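 also: ADAM10 enzyme cleaving a FRET peptide substrate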
[14] = CellTiter-Glo luminescence survival assay, SW480 colon tumor line, concentration-response curve, half-maximal inhibitory concentration (AID 1117338); format: functional
[15] = RKO cell viability reduction, dose response, CellTiter-Glo luminescence (AID 1117322); format: functional
[16] = cytotoxicity toward HCT116 cells – cell-based, CellTiter-Glo luminescence, IC50, dose response (AID 1117332); format: functional; conditions: HCT-116
[17] = SNU-C1 cell viability reduction, dose response, CellTiter-Glo luminescence (AID 1117323); format: functional, cell-based
[18] = cytotoxicity toward Colo320 cells – cell-based, CellTiter-Glo luminescence, IC50, dose response (AID 1117334); format: functional; conditions: COLO 320
[19] = cytotoxicity toward HT-29 cells – cell-based, CellTiter-Glo luminescence, IC50, dose response (AID 1117330); format: functional
[20] = Reduced DLD-1 viability, concentration-response, CellTiter-Glo luminescence (AID 1117352); format: functional
[21] = HCT116 cell viability decrease, GSK3B pretreatment – CellTiter-Glo, IC50, dose response (AID 1117339); format: functional; conditions: HCT-116
[22] = P. falciparum Dd2 growth inhibitors, dose response, SYBR Green, cherry-picked samples (AID 1159567); format: functional, cell-based
[23] = toxicity to human hepatoma HepG2 cells – cell-based, cherry-picked samples, cytotoxicity control, dose response (AID 1159577); format: functional
[24] = target: RNA-editing ligase 1, mitochondrial (Trypanosoma brucei brucei, UniProt P86926); test: inhibition of trypanosome RNA editing ligase – biochemical, fluorescence, Trypanosoma brucei, dose response (AID 1117295); format: functional
Sequence of RNA-editing ligase 1, mitochondrial (P86926 whole entry): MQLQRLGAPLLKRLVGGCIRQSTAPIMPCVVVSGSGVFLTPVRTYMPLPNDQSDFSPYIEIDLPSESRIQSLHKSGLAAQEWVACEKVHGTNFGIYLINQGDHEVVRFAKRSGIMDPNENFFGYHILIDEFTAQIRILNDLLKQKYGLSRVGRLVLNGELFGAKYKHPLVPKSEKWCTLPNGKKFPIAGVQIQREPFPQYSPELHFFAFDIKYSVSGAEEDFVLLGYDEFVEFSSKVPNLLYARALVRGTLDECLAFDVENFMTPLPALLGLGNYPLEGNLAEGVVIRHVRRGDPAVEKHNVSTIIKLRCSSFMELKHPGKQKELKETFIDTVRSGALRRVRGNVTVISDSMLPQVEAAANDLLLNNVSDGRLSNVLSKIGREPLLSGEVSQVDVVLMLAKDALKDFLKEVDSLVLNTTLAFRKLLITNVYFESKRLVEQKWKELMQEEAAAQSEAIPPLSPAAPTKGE

Sequence of Long-chain-fatty-acid--AMP ligase FadD28 (P9WQ59 whole entry): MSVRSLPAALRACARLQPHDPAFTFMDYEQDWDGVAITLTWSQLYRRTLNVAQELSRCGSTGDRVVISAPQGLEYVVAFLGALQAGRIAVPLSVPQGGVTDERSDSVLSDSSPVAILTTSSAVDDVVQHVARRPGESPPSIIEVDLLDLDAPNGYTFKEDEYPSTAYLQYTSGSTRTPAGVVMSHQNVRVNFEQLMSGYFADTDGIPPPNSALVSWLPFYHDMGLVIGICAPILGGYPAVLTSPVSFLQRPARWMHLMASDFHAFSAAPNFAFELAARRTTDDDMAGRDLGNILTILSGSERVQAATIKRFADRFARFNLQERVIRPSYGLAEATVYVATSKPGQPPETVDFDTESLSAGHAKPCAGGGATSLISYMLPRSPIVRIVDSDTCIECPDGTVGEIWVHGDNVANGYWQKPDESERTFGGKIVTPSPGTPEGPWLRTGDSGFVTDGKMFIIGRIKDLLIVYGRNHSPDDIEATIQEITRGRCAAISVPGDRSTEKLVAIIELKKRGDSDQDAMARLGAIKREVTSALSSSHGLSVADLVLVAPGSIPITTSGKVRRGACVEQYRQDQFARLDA
Sequence of Photoreceptor-specific nuclear receptor (Q9Y5X4 whole entry, the tested form may be a part): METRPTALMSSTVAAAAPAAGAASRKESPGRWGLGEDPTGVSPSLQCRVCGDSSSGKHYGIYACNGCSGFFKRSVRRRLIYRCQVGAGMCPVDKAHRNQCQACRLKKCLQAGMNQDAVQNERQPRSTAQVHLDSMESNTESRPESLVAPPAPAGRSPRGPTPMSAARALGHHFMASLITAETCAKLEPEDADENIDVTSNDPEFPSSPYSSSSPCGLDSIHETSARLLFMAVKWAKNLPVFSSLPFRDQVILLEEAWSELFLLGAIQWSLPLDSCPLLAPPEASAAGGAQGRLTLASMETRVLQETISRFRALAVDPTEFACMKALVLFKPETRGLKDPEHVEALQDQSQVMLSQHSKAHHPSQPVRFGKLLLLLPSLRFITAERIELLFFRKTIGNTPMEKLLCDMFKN
Sequence of Oxysterols receptor LXR-beta (P55055 whole entry, the tested form may be a part): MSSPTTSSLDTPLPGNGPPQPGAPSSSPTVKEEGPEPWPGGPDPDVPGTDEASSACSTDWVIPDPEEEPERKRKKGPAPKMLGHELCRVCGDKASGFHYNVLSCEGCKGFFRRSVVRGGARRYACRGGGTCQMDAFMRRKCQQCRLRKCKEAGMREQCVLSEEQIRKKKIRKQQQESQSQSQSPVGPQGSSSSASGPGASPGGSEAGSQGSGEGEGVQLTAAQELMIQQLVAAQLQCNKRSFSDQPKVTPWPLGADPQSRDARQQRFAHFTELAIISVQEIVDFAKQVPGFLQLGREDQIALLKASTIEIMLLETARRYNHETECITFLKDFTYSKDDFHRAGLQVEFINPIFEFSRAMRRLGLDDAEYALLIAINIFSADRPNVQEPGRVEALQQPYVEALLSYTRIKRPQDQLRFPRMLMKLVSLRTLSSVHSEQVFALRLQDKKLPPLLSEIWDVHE
Sequence of Paired box protein Pax-8 (Q06710 whole entry): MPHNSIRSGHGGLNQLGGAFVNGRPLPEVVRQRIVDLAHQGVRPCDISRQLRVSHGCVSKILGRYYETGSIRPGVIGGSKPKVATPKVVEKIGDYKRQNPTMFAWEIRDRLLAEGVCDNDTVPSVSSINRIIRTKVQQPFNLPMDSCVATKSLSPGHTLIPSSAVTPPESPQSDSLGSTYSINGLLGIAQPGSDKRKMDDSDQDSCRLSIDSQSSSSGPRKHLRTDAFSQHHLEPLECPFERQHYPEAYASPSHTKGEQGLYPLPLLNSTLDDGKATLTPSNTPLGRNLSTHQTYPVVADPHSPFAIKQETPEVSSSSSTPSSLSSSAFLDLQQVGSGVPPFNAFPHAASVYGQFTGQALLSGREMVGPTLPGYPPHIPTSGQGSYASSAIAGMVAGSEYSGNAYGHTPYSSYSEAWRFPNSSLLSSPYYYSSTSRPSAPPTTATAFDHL
Sequence of Disintegrin and metalloproteinase domain-containing protein 17 (P78536 whole entry, the tested form may be a part): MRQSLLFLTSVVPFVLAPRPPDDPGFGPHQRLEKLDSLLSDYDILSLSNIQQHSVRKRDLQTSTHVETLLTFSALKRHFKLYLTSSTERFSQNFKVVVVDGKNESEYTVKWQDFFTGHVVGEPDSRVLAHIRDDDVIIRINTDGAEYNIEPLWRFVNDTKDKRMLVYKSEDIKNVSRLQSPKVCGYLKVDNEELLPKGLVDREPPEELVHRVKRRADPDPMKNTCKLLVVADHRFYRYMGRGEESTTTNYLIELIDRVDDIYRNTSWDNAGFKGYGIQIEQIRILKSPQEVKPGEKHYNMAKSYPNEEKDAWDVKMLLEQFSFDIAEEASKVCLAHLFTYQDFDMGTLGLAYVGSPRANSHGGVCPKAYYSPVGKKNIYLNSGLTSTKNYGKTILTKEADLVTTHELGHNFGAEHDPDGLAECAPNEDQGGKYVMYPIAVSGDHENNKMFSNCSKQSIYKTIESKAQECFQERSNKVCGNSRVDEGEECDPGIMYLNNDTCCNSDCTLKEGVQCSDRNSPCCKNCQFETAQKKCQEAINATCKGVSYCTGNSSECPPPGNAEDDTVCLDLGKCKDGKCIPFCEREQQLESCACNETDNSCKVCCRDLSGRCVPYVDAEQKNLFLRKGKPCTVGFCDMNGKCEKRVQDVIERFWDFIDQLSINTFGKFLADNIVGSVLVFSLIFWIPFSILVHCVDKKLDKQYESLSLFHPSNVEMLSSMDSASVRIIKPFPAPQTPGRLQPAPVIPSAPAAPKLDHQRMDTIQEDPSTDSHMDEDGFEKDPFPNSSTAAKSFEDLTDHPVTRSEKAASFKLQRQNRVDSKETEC

**Q.** With `COc1cc2c(cc1NC(=O)c1ccccc1-c1ccccc1C(=O)O)-c1ccccc1C2` as the compound, how does the AC50 [1] read?
**A.** Its AC50 is > 100 µM (inactive).

**Q.** Which results are given for `Cc1cccc(OCC(=O)Nc2cc(C)ccc2O)c1`?
**A.** IC50 [2]: 676 nM (active); EC50 [3]: 4.61 µM (active); Ki (fMet-Leu-Phe receptor): > 66.7 µM (inactive)

**Q.** Which IC50 [4] does the source give for `C[C@H]1CCC/C=C/[C@@H]2C[C@H](O)C[C@H]2[C@H](O)[C@H]([S+]([O-])c2ccc(O)cc2)CC(=O)O1` (stereo partly specified) here?
**A.** Its IC50 is 2.05 µM (active).

**Q.** And the CC50 [5]?
**A.** Its CC50 is 4.03 µM (active).

**Q.** What about the IC50 [6] of the same compound?
**A.** Its IC50 is 231 µM (active).

**Q.** With `C[C@H](CO)N1C[C@H](C)[C@@H](CN(C)Cc2ccc(Cl)c(Cl)c2)Oc2ccc(NS(=O)(=O)c3ccccc3)cc2CC1=O` as the compound, how does the AC50 (Paired box protein Pax-8) read?
**A.** Its AC50 is 9.45 µM (active).

**Q.** What about the AC50 [7] of the same compound?
**A.** The AC50 was 39.7 µM (active).

**Q.** What about the AC50 [8] of the same compound?
**A.** Its AC50 is 67.9 µM (active).

**Q.** Which results are given for `Fc1cccc(Cl)c1/C=C/c1cnc2ccccc2n1`?
**A.** EC50 [9]: > 67.5 µM (inactive); EC50 (cells): > 67.5 µM (inactive)

**Q.** With `CCCCN1C=C(C(=O)OC)C(c2ccccc2C(F)(F)F)C(C(=O)OC)=C1` as the compound, how does the AC50 [10] read?
**A.** The AC50 was 8.63 µM (active).

**Q.** For `Cc1c(Cl)c(C(=O)NN=C(S)Nc2ccccc2)nn1C`, which IC50 [11] is on record?
**A.** The IC50 was > 122 µM (inactive).

**Q.** Which IC50 [12] does the source give for `C=CCC[C@@H](Cc1ccc(F)cc1)C(=O)OC[C@@H]1CCCN1C(=O)[C@H](CC=C)CC(=O)N[C@H](CO)Cc1ccccc1` here?
**A.** The IC50 was > 69.5 µM (inactive).

**Q.** And the IC50 [13]?
**A.** Its IC50 is 15.2 µM (inactive).

**Q.** For `O=C(O)CCC(=O)OC[C@@H](NC(=O)C(Cl)Cl)[C@H](O)c1ccc([N+](=O)[O-])cc1` [CHLORAMPHENICOL SODIUM SUCCINATE], which IC50 [14] is on record?
**A.** The IC50 was > 20 µM (inactive).

**Q.** And the IC50 [15]?
**A.** Its IC50 is > 20 µM (inactive).

**Q.** What about the IC50 [16] of the same compound?
**A.** Its IC50 is > 20 µM (inactive).

**Q.** And the IC50 [17]?
**A.** The IC50 was > 20 µM (inactive).

**Q.** And the IC50 [18]?
**A.** Its IC50 is > 20 µM (inactive).

**Q.** And the IC50 [19]?
**A.** The IC50 was > 20 µM (inactive).

**Q.** What about the IC50 [20] of the same compound?
**A.** The IC50 was > 20 µM (inactive).

**Q.** What about the IC50 [21] of the same compound?
**A.** The IC50 was > 20 µM (inactive).

**Q.** Which AC50 [22] does the source give for `CCS(=O)(=O)N1CCCCN2[C@H](C1)[C@@H](c1ccc(C#Cc3ccccc3OC)cc1)[C@@H]2CO` here?
**A.** The AC50 was 4.67 µM (active).

**Q.** What about the AC50 [23] of the same compound?
**A.** Its AC50 is > 39 µM (inactive).

**Q.** Which IC50 [14] does the source give for `CCCn1cnc2c1c(=O)n(CCCCC(C)=O)c(=O)n2C` [PROPENTOFYLLINE] here?
**A.** The IC50 was > 20 µM (inactive).

**Q.** What about the IC50 [15] of the same compound?
**A.** The IC50 was > 20 µM (inactive).

**Q.** What about the IC50 [16] of the same compound?
**A.** The IC50 was > 20 µM (inactive).

**Q.** What about the IC50 [17] of the same compound?
**A.** The IC50 was > 20 µM (inactive).

**Q.** And the IC50 [18]?
**A.** The IC50 was > 20 µM (inactive).

**Q.** What about the IC50 [19] of the same compound?
**A.** The IC50 was > 20 µM (inactive).

**Q.** What about the IC50 [20] of the same compound?
**A.** Its IC50 is > 20 µM (inactive).

**Q.** What about the IC50 [21] of the same compound?
**A.** The IC50 was > 20 µM (inactive).

**Q.** With `Cn1c(=O)c2cc(NC(=S)NC3CCCCC3)ccc2n1Cc1ccc(Cl)cc1` as the compound, how does the AC50 [1] read?
**A.** Its AC50 is 58 µM (active).

**Q.** For `C=CCNC1=NC(c2ccccc2C(F)(F)F)C(C(=O)OC)=C(C)N1Cc1ccc(C(F)(F)F)cc1` (stereo unspecified), which IC50 [24] is on record?
**A.** Its IC50 is > 96.6 µM (inactive).
